The text below walks through data of US9156818B2, “Hepatitis C virus inhibitors” (Enanta Pharmaceuticals, Inc., priority 2009, dated 2015).

Structures are written as SMILES.

As a reminder, the EC50 is the concentration that produces a half-maximal response.

For this assay, the system named is HCV 1b genotype replicon. Description: HCV genotype-1b replicon assay (qRT-PCR or luciferase). The conditions noted are these: Hepatitis C virus; HCV 1b replicon cell line (SGR 11-7 or Huh-luc/neo-ET); qRT-PCR or luciferase readout; read-out: Genotype-1b replicon EC50 Range. The format is cell-based. The source says: HCV replicon cell lines (kindly provided by R. Bartenschlager) isolated from colonies as described by Lohman et. al. (Lohman et al. (1999) Science 285: 110-113, expressly incorporated by reference in its entirety) and used for all experiments. The HCV replicon has the nucleic acid sequence set forth in EMBL Accession No.: AJ242651, the coding sequence of which is from nucleotides 1801 to 8406.
The coding sequence of the published HCV replicon was synthesized and subsequently assembled in a modified plasmid pBR322 (Promega, Madison, Wis.) using standard molecular biology techniques. One replicon cell line (“SGR 11-7”) stably expresses HCV replicon RNA which consists of (i) the HCV 5′UTR fused to the first 12 amino acids of the capsid protein, (ii) the neomycin phosphotransferase gene (neo), (iii) the IRES from encephalomyocarditis virus (EMCV), and (iv) HCV NS2 to NS5B genes and the HCV 3′UTR. Another replicon cell line (“Huh-luc/neo-ET”) described by Vrolijk et. al. (Vrolijk et. al. (2003) Journal of Virological Methods 110:201-209, expressly incorporated by reference in its entirety) stably expresses HCV replicon RNA which consists of (i) the HCV 5′UTR fused to the first 12 amino acids of the capsid protein, (ii) the firefly luciferase reporter gene, (iii) the ubiquitin gene, (iv) the neomycin phosphotransferase gene (neo), (v) the IRES from encephalomyocarditis virus (EMCV), and (vi) HCV NS3 to NS5B genes that harbor cell culture adaptive mutations (E1202G, T12801, K1846T) and the HCV 3′UTR.
These cell lines were maintained at 37° C., 5% CO2, 100% relative humidity in DMEM (Cat#11965-084, Invitrogen), with 10% fetal calf serum (“FCS”, Invitrogen), 1% non-essential amino acids (Invitrogen), 1% of Glutamax (Invitrogen), 1% of 100× penicillin/streptomycin (Cat#15140-122, Invitrogen) and Geneticin (Cat#10131-027, Invitrogen) at 0.75 mg/ml or 0.5 mg/ml for 11-7 and Huh-luc/neo-ET cells, respectively.
EC50 values of single agent compounds and combinations were determined by HCV RNA detection using quantitative RT-PCR, according to the manufacturer's instructions, with a TAQMAN® One-Step RT-PCR Master Mix Reagents Kit (Cat# AB 4309169, Applied Biosystems) on an ABI Model 7500 thermocycler. The TaqMan primers used for detecting and quantifying HCV RNA were obtained from Integrated DNA Technologies. HCV RNA was normalized to GAPDH RNA levels in drug-treated cells, which was detected and quantified using the Human GAPDH Endogenous Control Mix (Applied Biosystems, AB 4310884E). Total cellular RNA was purified from 96-well plates using the RNAqueous 96 kit (Ambion, Cat# AM1812). Chemical agent cytotoxicity was evaluated using an MTS assay according to the manufacturer's directions (Promega).
Since clinical drug resistance often develops in viral infections following single agent therapies, there is a need to assess the additive, antagonistic, or synergistic properties of combination therapies. We use the HCV replicon system to assess the potential use of the compound of the present invention or in combination therapies with Interferon alpha, cyclosporine analogs and inhibitors targeting other HCV proteins. The acute effects of a single or combinations of drugs are studied in the “Huh-luc/neo-ET” replicon with each chemical agent titrated in an X or Y direction in a 6 point two-fold dilution curve centered around the EC50 of each drug. Briefly, replicon cells are seeded at 7,000 cells per well in 90 ul DMEM (without phenol red, Invitrogen Cat.#31053-036) per well with 10% FCS, 1% non-essential amino acids, 1% of Glutamax and 1% of 1 OOX penicillin/streptomycin and incubated overnight at 37° C., 5% CO2, 100% relative humidity. […]
(In general: In antiviral work, replicon cells carry a viral genome segment that copies itself.)
As to `COC(=O)N[C@H](C(=O)N1CCC[C@H]1c1ncc(-c2ccc(-c3ccc(-c4cnc([C@@H]5[C@H]6CC[C@H](C6)N5C(=O)[C@@H](NC(=O)OC)C(C)C)[nH]4)cc3)cc2)[nH]1)C(C)C` [Example 83], the 50% effective concentration (EC50) is less than 1 nM.

Turning to `COC(=O)N[C@H](C(=O)N1CCC[C@H]1c1ncc(-c2ccc(-c3ccc(-c4cnc([C@H]5[C@@H]6CC[C@@H](C6)N5C(=O)[C@@H](NC(=O)OC)C(C)C)[nH]4)cc3)cc2)[nH]1)C(C)C` [Example 246], the EC50 was less than 1 nM.

Take `COC(=O)N[C@H](C(=O)N1CCC[C@H]1c1nc2cc(C#Cc3ccc(-c4cnc([C@@H]5[C@H]6CC[C@H](C6)N5C(=O)[C@@H](NC(=O)OC)C(C)C)[nH]4)cc3)ccc2[nH]1)C(C)C` [Example 319]: the 50% effective concentration (EC50) was less than 1 nM.

With `COC(=O)N[C@H](C(=O)N1CCC[C@H]1c1nc(-c2ccc(C#Cc3ccc4[nH]c([C@@H]5[C@H]6CC[C@H](C6)N5C(=O)[C@@H](NC(=O)OC)C(C)C)nc4c3)cc2)c[nH]1)C(C)C` [Example 338], the EC50 was less than 1 nM.

With `COC(=O)N[C@H](C(=O)N1CCC[C@H]1c1nc(-c2ccc(C#Cc3ccc4[nH]c([C@@H]5C6CCC(CC6)N5C(=O)[C@@H](NC(=O)OC)C(C)C)nc4c3)cc2)c[nH]1)C(C)C` [Example 344], the EC50 is less than 1 nM.

For the molecule `COC(=O)N[C@H](C(=O)N1[C@@H]2CC[C@@H](C2)[C@H]1c1ncc(-c2ccc(C#Cc3ccc4[nH]c([C@@H]5[C@H]6CC[C@H](C6)N5C(=O)[C@@H](NC(=O)OC)C(C)C)nc4c3)cc2)[nH]1)C(C)C` [Example 346], the EC50 is less than 1 nM.

As for `COC(=O)N[C@H](C(=O)N1CCC[C@H]1c1nc(-c2ccc(-c3ccc(-c4ccc5[nH]c([C@@H]6[C@H]7CC[C@H](C7)N6C(=O)[C@@H](NC(=O)OC)C(C)C)nc5c4)cc3)cc2)c[nH]1)C(C)C` [Example 348], the half-maximal effective concentration (EC50) was less than 1 nM.

Consider `COC(=O)N[C@H](C(=O)N1CCC[C@H]1c1nc(-c2ccc3cc(-c4ccc5[nH]c([C@@H]6[C@H]7CC[C@H](C7)N6C(=O)[C@@H](NC(=O)OC)C(C)C)nc5c4)ccc3c2)c[nH]1)C(C)C` [Example 350], for which the 50% effective concentration (EC50) is less than 1 nM.
